Tests used:
[1] = biological target: Phosphatidylinositol 4,5-bisphosphate 3-kinase catalytic subunit gamma isoform (Homo sapiens, UniProt P48736); assay: Inhibition of GST-tagged PI3Kgamma […] (unknown origin) using PIP2 as subtrate after 1 hr in presence of biotin-labeled PIP3 by TR-FRET assay
[2] = biological target: Phosphatidylinositol 4,5-bisphosphate 3-kinase catalytic subunit beta isoform (Homo sapiens, UniProt P42338); assay: Inhibition of GST-tagged PI3Kbeta […] (unknown origin) using PIP2 as subtrate after 1 hr in presence of biotin-labeled PIP3 by TR-FRET assay
[3] = biological target: T1, Phosphatidylinositol 4,5-bisphosphate 3-kinase catalytic subunit delta isoform (Homo sapiens, UniProt O00329); assay: Inhibition of GST-tagged PI3Kdelta […] (unknown origin) using PIP2 as subtrate after 1 hr in presence of biotin-labeled PIP3 by TR-FRET assay
T1 sequence (O00329 whole entry): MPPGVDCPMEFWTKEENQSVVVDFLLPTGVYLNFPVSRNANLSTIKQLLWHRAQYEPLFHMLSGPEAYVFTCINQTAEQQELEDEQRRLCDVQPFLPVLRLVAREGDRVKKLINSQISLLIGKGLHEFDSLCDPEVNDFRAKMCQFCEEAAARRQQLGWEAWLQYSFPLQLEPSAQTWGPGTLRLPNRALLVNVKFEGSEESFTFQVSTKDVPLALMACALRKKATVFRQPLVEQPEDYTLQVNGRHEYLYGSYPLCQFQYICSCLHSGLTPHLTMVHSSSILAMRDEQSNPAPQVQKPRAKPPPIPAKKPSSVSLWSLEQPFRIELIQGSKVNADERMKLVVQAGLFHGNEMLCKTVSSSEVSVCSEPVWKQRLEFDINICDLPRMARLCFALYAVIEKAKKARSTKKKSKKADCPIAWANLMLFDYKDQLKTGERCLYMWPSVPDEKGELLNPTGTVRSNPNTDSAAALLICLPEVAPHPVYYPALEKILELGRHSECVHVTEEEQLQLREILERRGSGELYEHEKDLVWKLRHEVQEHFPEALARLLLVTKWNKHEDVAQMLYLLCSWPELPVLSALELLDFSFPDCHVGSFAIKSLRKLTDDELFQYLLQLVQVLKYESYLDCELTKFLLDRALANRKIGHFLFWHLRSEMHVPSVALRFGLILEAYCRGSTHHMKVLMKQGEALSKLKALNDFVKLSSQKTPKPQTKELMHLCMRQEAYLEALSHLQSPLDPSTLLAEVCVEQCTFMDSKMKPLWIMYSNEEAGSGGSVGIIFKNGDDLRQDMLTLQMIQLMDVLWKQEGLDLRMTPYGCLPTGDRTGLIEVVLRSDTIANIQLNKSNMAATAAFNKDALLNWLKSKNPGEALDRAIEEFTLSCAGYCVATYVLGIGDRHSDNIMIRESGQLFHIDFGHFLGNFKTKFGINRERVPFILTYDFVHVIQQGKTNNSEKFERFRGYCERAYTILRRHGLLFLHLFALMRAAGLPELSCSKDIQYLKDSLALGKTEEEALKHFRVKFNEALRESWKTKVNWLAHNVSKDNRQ

[4] = biological target: Phosphatidylinositol 4,5-bisphosphate 3-kinase catalytic subunit alpha isoform (Homo sapiens, UniProt P42336); assay: Inhibition of GST-tagged PI3Kalpha […] (unknown origin) using PIP2 as subtrate after 1 hr in presence of biotin-labeled PIP3 by TR-FRET assay
Chain of Phosphatidylinositol 4,5-bisphosphate 3-kinase catalytic subunit alpha isoform (P42336 whole entry, canonical isoform): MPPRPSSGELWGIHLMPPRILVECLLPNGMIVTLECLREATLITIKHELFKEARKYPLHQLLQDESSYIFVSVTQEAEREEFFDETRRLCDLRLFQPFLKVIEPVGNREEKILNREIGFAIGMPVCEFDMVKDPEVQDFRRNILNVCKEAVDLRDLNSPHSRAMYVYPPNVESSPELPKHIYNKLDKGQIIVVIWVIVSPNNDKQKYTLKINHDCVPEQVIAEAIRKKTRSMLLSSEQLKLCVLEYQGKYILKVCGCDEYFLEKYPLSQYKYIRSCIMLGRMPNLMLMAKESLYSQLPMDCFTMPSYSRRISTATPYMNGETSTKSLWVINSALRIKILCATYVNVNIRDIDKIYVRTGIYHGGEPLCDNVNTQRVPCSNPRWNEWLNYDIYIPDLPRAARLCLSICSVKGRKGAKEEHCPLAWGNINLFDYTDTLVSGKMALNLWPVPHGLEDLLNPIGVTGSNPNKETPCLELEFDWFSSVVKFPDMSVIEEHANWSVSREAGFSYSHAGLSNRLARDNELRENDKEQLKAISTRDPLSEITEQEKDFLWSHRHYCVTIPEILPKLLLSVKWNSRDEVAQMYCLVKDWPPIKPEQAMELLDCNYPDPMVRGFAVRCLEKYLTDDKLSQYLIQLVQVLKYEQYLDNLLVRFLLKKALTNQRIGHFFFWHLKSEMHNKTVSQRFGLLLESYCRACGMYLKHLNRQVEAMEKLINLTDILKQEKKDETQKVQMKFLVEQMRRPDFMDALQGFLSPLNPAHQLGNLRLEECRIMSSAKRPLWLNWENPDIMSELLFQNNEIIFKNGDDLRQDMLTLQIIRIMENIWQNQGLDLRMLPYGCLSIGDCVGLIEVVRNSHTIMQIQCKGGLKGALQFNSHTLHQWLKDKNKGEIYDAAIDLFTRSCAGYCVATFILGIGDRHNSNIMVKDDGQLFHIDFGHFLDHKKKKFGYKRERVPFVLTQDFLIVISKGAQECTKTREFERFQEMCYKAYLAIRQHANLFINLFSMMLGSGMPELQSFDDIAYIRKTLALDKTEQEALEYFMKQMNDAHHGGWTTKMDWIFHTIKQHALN

Chain of Phosphatidylinositol 4,5-bisphosphate 3-kinase catalytic subunit gamma isoform (P48736 whole entry, canonical isoform): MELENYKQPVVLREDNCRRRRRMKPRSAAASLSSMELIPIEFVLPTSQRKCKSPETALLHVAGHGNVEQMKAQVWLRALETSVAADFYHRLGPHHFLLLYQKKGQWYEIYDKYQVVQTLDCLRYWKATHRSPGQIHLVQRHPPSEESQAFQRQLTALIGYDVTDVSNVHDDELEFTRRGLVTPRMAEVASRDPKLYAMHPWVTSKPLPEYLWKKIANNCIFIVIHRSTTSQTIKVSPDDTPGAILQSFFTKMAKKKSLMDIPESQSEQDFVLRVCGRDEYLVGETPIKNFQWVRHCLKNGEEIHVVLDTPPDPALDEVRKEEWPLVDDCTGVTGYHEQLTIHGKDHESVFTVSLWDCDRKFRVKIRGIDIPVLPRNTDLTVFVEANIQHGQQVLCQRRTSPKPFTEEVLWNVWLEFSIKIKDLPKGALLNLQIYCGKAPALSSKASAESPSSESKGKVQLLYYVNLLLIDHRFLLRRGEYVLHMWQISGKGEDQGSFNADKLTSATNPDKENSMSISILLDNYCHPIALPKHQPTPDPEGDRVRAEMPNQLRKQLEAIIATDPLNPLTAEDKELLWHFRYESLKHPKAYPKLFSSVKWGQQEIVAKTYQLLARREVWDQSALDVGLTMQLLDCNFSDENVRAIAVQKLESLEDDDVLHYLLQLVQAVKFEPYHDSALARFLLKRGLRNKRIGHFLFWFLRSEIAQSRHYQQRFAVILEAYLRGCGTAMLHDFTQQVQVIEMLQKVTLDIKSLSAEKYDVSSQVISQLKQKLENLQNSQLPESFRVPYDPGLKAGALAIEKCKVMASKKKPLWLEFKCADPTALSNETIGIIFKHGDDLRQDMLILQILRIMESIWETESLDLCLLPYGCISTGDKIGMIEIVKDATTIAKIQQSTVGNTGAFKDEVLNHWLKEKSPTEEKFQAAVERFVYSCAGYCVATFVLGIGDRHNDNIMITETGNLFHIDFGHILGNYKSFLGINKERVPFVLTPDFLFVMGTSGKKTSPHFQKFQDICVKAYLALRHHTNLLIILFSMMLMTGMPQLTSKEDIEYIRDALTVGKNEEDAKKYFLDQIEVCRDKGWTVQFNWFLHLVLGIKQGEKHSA
Chain of Phosphatidylinositol 4,5-bisphosphate 3-kinase catalytic subunit beta isoform (P42338 whole entry, canonical isoform): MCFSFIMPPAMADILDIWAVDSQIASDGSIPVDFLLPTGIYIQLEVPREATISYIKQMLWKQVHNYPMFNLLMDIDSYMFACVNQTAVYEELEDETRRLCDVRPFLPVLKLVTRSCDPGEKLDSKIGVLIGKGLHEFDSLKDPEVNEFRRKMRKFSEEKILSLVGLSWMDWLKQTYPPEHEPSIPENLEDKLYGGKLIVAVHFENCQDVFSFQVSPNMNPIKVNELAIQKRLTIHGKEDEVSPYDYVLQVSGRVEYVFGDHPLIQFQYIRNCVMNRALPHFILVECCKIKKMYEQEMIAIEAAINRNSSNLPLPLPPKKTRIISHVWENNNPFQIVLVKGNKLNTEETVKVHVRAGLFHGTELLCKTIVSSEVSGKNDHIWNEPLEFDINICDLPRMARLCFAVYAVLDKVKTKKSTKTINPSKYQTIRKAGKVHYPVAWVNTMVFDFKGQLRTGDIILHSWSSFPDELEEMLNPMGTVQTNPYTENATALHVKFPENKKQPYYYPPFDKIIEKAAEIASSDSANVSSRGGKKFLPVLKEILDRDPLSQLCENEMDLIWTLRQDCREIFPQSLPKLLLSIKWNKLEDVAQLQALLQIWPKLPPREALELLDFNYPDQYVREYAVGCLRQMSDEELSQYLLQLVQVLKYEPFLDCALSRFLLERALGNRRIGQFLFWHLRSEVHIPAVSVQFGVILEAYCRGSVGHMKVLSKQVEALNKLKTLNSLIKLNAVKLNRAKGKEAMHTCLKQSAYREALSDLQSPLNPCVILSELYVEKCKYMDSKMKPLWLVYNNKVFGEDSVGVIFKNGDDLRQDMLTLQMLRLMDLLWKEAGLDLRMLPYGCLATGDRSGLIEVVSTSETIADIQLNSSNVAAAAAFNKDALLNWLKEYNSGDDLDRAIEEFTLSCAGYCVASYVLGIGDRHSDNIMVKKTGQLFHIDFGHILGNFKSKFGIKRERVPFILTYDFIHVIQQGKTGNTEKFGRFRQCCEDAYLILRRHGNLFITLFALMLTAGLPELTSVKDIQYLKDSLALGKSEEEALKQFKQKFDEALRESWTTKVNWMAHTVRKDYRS

IC50 [1] [µM]	IC50 [2] [µM]	IC50 [3] [µM]	IC50 [4] [µM]	Compound
≤ 10	≤ 10	≤ 10	≤ 10	COc1ncc(N2CCOCC2)cc1S(=O)(=O)Nc1ccnc(-c2ccc(CN3CCN(C4COC4)CC3)cc2)c1
≤ 10	≤ 10	≤ 10	≤ 10	CCC(C)N1CCN(Cc2ccc(-c3cc(NS(=O)(=O)c4cc(N5CCOCC5)cnc4OC)ccn3)cc2)CC1 (stereo not drawn)
≤ 10	≤ 10	≤ 10	≤ 10	COCCN1CCN(Cc2ccc(-c3cc(NS(=O)(=O)c4cc(N5CCOCC5)cnc4OC)ccn3)c(F)c2)CC1
≤ 10	≤ 10	≤ 10	≤ 10	COc1ncc(N2CCOCC2)cc1S(=O)(=O)Nc1ccnc(-c2ccc(CN3CCC(C)C3)cc2F)c1 (stereo not drawn)
≤ 10	≤ 10	≤ 10	≤ 10	CCOc1ncc(N2CCOCC2)cc1S(=O)(=O)Nc1ccnc(-c2ccc(CN3C[C@@H](C)O[C@@H](C)C3)cc2F)c1
≤ 10	≤ 10	≤ 10	≤ 10	COc1ncc(N2CCOCC2)cc1S(=O)(=O)N(c1ccnc(-c2ccc(CN3CCN(C(C)C)CC3)cc2F)c1)C(C)C
≤ 10	≤ 10	≤ 10	≤ 10	COc1ncc(N2CCOCC2)cc1S(=O)(=O)Nc1ccnc(-c2ccc(CN3C[C@@H](C)O[C@@H](C)C3)cc2)c1
≤ 10	≤ 10	≤ 10	≤ 10	CN(C)c1ncc(N2CCOCC2)cc1S(=O)(=O)Nc1ccnc(-c2ccc(CN3CCN(C(C)(C)C)CC3)cc2F)c1
≤ 10	≤ 10	≤ 10	≤ 10	COc1ncc(N2CCOCC2)cc1S(=O)(=O)Nc1ccnc(-c2ccc(CN3CCCCC3)cc2F)c1
≤ 10	≤ 10	≤ 10	≤ 10	COc1ncc(N2CCOCC2)cc1S(=O)(=O)Nc1ccnc(-c2ccc(CN3CCN(C(C)C)CC3)cc2F)c1
≤ 10	≤ 10	≤ 10	≤ 10	COc1ncc(N2CCOCC2)cc1S(=O)(=O)Nc1ccnc(-c2cc(Cl)c(CN3CCN(C(C)C)CC3)cc2F)c1
≤ 10	≤ 10	≤ 10	≤ 10	COc1ncc(N2CCOCC2)cc1S(=O)(=O)Nc1ccnc(-c2ccc(CN3CCN(C(C)C)CC3)cc2)c1
≤ 10	≤ 10	≤ 10	≤ 10	COc1ncc(N2CCOCC2)cc1S(=O)(=O)Nc1ccnc(-c2ccc(CN3CCN(C(C)C)CC3)c(F)c2F)c1
≤ 10	≤ 10	≤ 10	≤ 10	COc1ncc(N2CCOCC2)cc1S(=O)(=O)Nc1ccnc(-c2ccc(CN3CCN(C4COC4)CC3)cc2F)c1
≤ 10	≤ 10	≤ 10	≤ 10	COc1ncc(N2CCOCC2)cc1S(=O)(=O)Nc1ccnc(-c2ccc(CN3CCCC3C)cc2F)c1 (stereo not drawn)
≤ 10	≤ 10	≤ 10	≤ 10	CCCN(c1ccnc(-c2ccc(CN3CCN(C(C)C)CC3)cc2F)c1)S(=O)(=O)c1cc(N2CCOCC2)cnc1OC
≤ 10	≤ 10	≤ 10	≤ 10	COc1ncc(N2CCOCC2)cc1S(=O)(=O)Nc1ccnc(-c2ccc(CN3CCN(C(C)C)CC3)c(F)c2)c1
≤ 10	≤ 10	≤ 10	≤ 10	COc1ncc(N2CCOCC2)cc1S(=O)(=O)Nc1ccnc(-c2ccc(CN3CCOCC3)cc2)c1
≤ 10	≤ 10	≤ 10	≤ 10	COc1ncc(N2CCOCC2)cc1S(=O)(=O)Nc1ccnc(-c2ccc(CN3CCC(C(C)(C)O)CC3)cc2F)c1
≤ 10	≤ 10	≤ 10	≤ 10	COc1ncc(N2CCOCC2)cc1S(=O)(=O)Nc1ccnc(-c2cc(F)c(CN3CCN(C(C)C)CC3)c(F)c2)c1

More lines, now with the values behind:

Compound	IC50 [1] [µM]	IC50 [2] [µM]	IC50 [3] [µM]	IC50 [4] [µM]
COc1ncc(N2CCOCC2)cc1S(=O)(=O)Nc1ccnc(-c2ccc(CN3CCN(C4CCC4)CC3)cc2F)c1	≤ 10	≤ 10	≤ 10	≤ 10
CC(C)N1CCN(Cc2ccc(-c3cc(NS(=O)(=O)c4cc(N5CCOCC5)cnc4N(C)C)ccn3)c(F)c2)CC1	≤ 10	≤ 10	≤ 10	≤ 10
CCOC(=O)CN(c1ccnc(-c2ccc(CN3CCN(C(C)C)CC3)cc2F)c1)S(=O)(=O)c1cc(N2CCOCC2)cnc1OC	≤ 10	≤ 10	≤ 10	≤ 10
COc1ncc(N2CCOCC2)cc1S(=O)(=O)Nc1ccnc(-c2ccc(CN3CCCC3)c(F)c2)c1	≤ 10	≤ 10	≤ 10	≤ 10
COc1ncc(N2CCOCC2)cc1S(=O)(=O)Nc1ccnc(-c2ccc(CN3CCN(C(C)(C)C)CC3)cc2)c1	≤ 10	≤ 10	≤ 10	≤ 10
CCN(c1ccnc(-c2ccc(CN3CCN(C(C)C)CC3)cc2F)c1)S(=O)(=O)c1cc(N2CCOCC2)cnc1OC	≤ 10	≤ 10	≤ 10	≤ 10
COc1ncc(N2CCOCC2)cc1S(=O)(=O)Nc1ccnc(-c2c(F)cc(CN3CCN(C(C)C)CC3)cc2F)c1	≤ 10	≤ 10	≤ 10	≤ 10
COc1ncc(N2CCOCC2)cc1S(=O)(=O)Nc1ccnc(-c2ccc(CN3CCNCC3)cc2F)c1	≤ 10	≤ 10	≤ 10	≤ 10
COc1ncc(N2CCOCC2)cc1S(=O)(=O)Nc1ccnc(-c2ccc(CN3CCCC3)cc2F)c1	≤ 10	≤ 10	≤ 10	≤ 10
COc1ncc(N2CCOCC2)cc1S(=O)(=O)Nc1ccnc(-c2cc(F)c(CN3CCN(C(C)C)CC3)cc2F)c1	≤ 10	≤ 10	≤ 10	≤ 10
COc1ncc(N2CCOCC2)cc1S(=O)(=O)N(COC(=O)C(C)(C)C)c1ccnc(-c2ccc(CN3CCN(C(C)C)CC3)cc2F)c1	≤ 10	≤ 10	≤ 10	≤ 10
COc1ncc(N2CCOCC2)cc1S(=O)(=O)Nc1ccnc(-c2ccc(CN3CCN(C(C)(C)C)CC3)cc2F)c1	≤ 10	≤ 10	≤ 10	≤ 10
COc1ncc(N2CCOCC2)cc1S(=O)(=O)Nc1ccnc(-c2ccc(CN3C[C@@H](C)O[C@@H](C)C3)cc2F)c1	≤ 10	≤ 10	≤ 10	≤ 10
COc1ncc(N2CCOCC2)cc1S(=O)(=O)N(C)c1ccnc(-c2ccc(CN3CCN(C(C)C)CC3)cc2F)c1	≤ 10	≤ 10	≤ 10	≤ 10
COc1ncc(N2CCOCC2)cc1S(=O)(=O)N(C)c1ccnc(-c2ccc(CN3CCN(C(C)(C)C)CC3)cc2F)c1	≤ 10	≤ 10	≤ 10	≤ 10
COc1ncc(N2CCOCC2)cc1S(=O)(=O)Nc1ccnc(-c2ccc(CN3CCN(C4CCC4)CC3)cc2)c1	≤ 10	≤ 10	≤ 10	≤ 10
COc1ncc(N2CCOCC2)cc1S(=O)(=O)Nc1ccnc(-c2ccc(CN(C)C)cc2)c1	≤ 10	≤ 10	≤ 10	≤ 10

Reference: ChEMBL document CHEMBL4130587, “Chemical Compounds as Inhibitors of Kinase Activity for the Treatment of Cancer and COPD” (ACS Med Chem Lett, 2017)
